Source: PubChem BioAssay AID330 (DTP/NCI, 2004)
Where “and” joins values, the source holds several entries; their conditions need not be identical. Equal entries are not always repeated. Toxic doses and inconclusive results are not listed.

Test system: P388 leukemia ip, CD2F1 mice, survival T/C
Test: NCI In Vivo Anticancer Drug Screen. Data for tumor model P388 Leukemia (intraperitoneal) in CD2F1 (CDF1) mice
Details: endpoint: median survival time, higher = longer survival
How it was run: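 Mice carrying the transplanted tumor received test compound or vehicle. Survival was recorded in each group, and the value is the treated-group measurement divided by that of the vehicle-treated control group.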

[1] = dose: 50.0 mg/kg/injection, schedule: Q01DX009 (ip), vehicle: Klucel (hydroxypropylcellulose) (HPC)
[2] = dose: 100.0 mg/kg/injection, schedule: Q01DX009 (ip), vehicle: Klucel (hydroxypropylcellulose) (HPC)
[3] = dose: 200.0 mg/kg/injection, schedule: Q01DX009 (ip), vehicle: Klucel (hydroxypropylcellulose) (HPC)
[4] = dose: 25.0 mg/kg/injection, schedule: Q01DX005 (ip), vehicle: Klucel (hydroxypropylcellulose) (HPC)
[5] = dose: 50.0 mg/kg/injection, schedule: Q01DX005 (ip), vehicle: Klucel (hydroxypropylcellulose) (HPC)
[6] = dose: 100.0 mg/kg/injection, schedule: Q01DX005 (ip), vehicle: Klucel (hydroxypropylcellulose) (HPC)
[7] = dose: 200.0 mg/kg/injection, schedule: Q01DX005 (ip), vehicle: Klucel (hydroxypropylcellulose) (HPC)
[8] = dose: 200.0 mg/kg/injection, schedule: Q01DX005 (ip), vehicle: saline with Tween-80

## Cc1cc(OCCS(=O)(=O)C(CCOS(C)(=O)=O)COS(C)(=O)=O)cc(C)c1Cl (stereo unspecified)
[1]
  T/C: 105 % of control
[2]
  T/C: 102 % of control
[3]
  T/C: 101 % of control

## CC(C)N(C(C)C)p1n(C(C)(C)C)n1C(C)(C)C
dose: 12.5 mg/kg/injection, schedule: Q01DX005 (ip), vehicle: Klucel (hydroxypropylcellulose) (HPC)
  T/C: 108 % of control
[4]
  T/C: 117 % of control
[5]
  T/C: 110 % of control

## CCOC(=O)c1cnc(SC)n(-c2ccc(OC)cc2)c1=O
[5]
  T/C: 107 % of control
[6]
  T/C: 92 % of control
[7]
  T/C: 101 % of control

## COc1cccc2c1C(CCCC(=O)O)CCC2 (stereo unspecified)
[5]
  T/C: 101 % of control
[6]
  T/C: 104 % of control
[7]
  T/C: 104 % of control

## C=C(N=NNc1ccccc1)c1ccccc1
[5]
  T/C: 97 % of control
[6]
  T/C: 101 % of control
[7]
  T/C: 93 % of control

## CC(=O)Nc1ccccc1CO
[4]
  T/C: 97 % of control
[5]
  T/C: 100 % of control
[6]
  T/C: 100 % of control
[7]
  T/C: 100 % of control

## O=C(N=Nc1ccccc1)Nc1ccc(Br)cc1
dose: 50.0 mg/kg/injection, schedule: Q01DX005 (ip), vehicle: saline with Tween-80
  T/C: 101 % of control
dose: 100.0 mg/kg/injection, schedule: Q01DX005 (ip), vehicle: saline with Tween-80
  T/C: 101 % of control
[8]
  T/C: 104 % of control

## C1CCC2OCN3CCCCC3CC2C1 (stereo unspecified)
dose: 12.5 mg/kg/injection, schedule: Q01DX005 (ip), vehicle: saline
  T/C: 107 % of control and 98 % of control
dose: 25.0 mg/kg/injection, schedule: Q01DX005 (ip), vehicle: saline
  T/C: 99 % of control and 98 % of control
dose: 50.0 mg/kg/injection, schedule: Q01DX005 (ip), vehicle: saline
  T/C: 100 % of control and 111 % of control and 113 % of control
dose: 100.0 mg/kg/injection, schedule: Q01DX005 (ip), vehicle: saline
  T/C: 114 % of control and 118 % of control and 121 % of control

## O=[N+]([O-])c1ccc2c(c1)Cc1cc(N(CCCl)CCCl)ccc1-2
[1]
  T/C: 94 % of control
[2]
  T/C: 92 % of control
[3]
  T/C: 94 % of control

## CCOC(=O)c1ccc(NC(=O)OCc2ccccc2)cc1
dose: 50.0 mg/kg/injection, schedule: Q01DX009 (ip), vehicle: saline with Tween-80
  T/C: 91 % of control
dose: 100.0 mg/kg/injection, schedule: Q01DX009 (ip), vehicle: saline with Tween-80
  T/C: 86 % of control
dose: 200.0 mg/kg/injection, schedule: Q01DX009 (ip), vehicle: saline with Tween-80
  T/C: 96 % of control
dose: 400.0 mg/kg/injection, schedule: Q01DX009 (ip), vehicle: saline with Tween-80
  T/C: 107 % of control

## Cc1ccc(NC2OC(CO)C(O)C(O)C2O)cc1 (stereo unspecified)
dose: 50.0 mg/kg/injection, schedule: Q01DX009 (ip), vehicle: saline
  T/C: 104 % of control
dose: 100.0 mg/kg/injection, schedule: Q01DX009 (ip), vehicle: saline
  T/C: 111 % of control
dose: 200.0 mg/kg/injection, schedule: Q01DX009 (ip), vehicle: saline
  T/C: 98 % of control

## NS(=O)(=O)OCCCCCCCOS(N)(=O)=O
dose: 6.0 mg/kg/injection, schedule: Q01DX005 (iv), vehicle: other
  T/C: 109 % of control
dose: 6.7 mg/kg/injection, schedule: Q04DX003 (ip), vehicle: other
  T/C: 121 % of control
dose: 8.98 mg/kg/injection, schedule: Q01DX005 (ip), vehicle: other
  T/C: 122 % of control
dose: 8.98 mg/kg/injection, schedule: Q01DX005 (iv), vehicle: other
  T/C: 112 % of control
dose: 10.0 mg/kg/injection, schedule: Q04DX003 (ip), vehicle: other
  T/C: 119 % of control
dose: 11.0 mg/kg/injection, schedule: Q03HX009 (ip), vehicle: other
  T/C: 160 % of control
dose: 13.4 mg/kg/injection, schedule: Q01DX005 (iv), vehicle: other
  T/C: 118 % of control
dose: 16.5 mg/kg/injection, schedule: Q03HX009 (ip), vehicle: other
  T/C: 171 % of control
dose: 16.67 mg/kg/injection, schedule: Q01DX009 (ip), vehicle: other
  T/C: 168 % of control
dose: 20.0 mg/kg/injection, schedule: Q01DX001 (iv), vehicle: other
  T/C: 105 % of control
dose: 20.0 mg/kg/injection, schedule: Q01DX005 (ip), vehicle: other
  T/C: 150 % of control and 159 % of control
dose: 22.5 mg/kg/injection, schedule: Q03HX003 (ip), vehicle: other
  T/C: 158 % of control
dose: 24.9 mg/kg/injection, schedule: Q01DX009 (ip), vehicle: other
  T/C: 184 % of control
dose: 25.0 mg/kg/injection, schedule: Q01DX005 (ip), vehicle: saline with Tween-80
  T/C: 152 % of control and 163 % of control
dose: 25.0 mg/kg/injection, schedule: Q03HX009 (ip), vehicle: other
  T/C: 206 % of control
dose: 30.0 mg/kg/injection, schedule: Q01DX001 (ip), vehicle: other
  T/C: 124 % of control
dose: 30.0 mg/kg/injection, schedule: Q01DX001 (iv), vehicle: other
  T/C: 111 % of control
dose: 30.0 mg/kg/injection, schedule: Q01DX005 (ip), vehicle: other
  T/C: 161 % of control and 181 % of control
dose: 33.3 mg/kg/injection, schedule: Q04DX003 (ip), vehicle: other
  T/C: 164 % of control
dose: 34.0 mg/kg/injection, schedule: Q03HX003 (ip), vehicle: other
  T/C: 174 % of control
dose: 37.0 mg/kg/injection, schedule: Q03HX009 (ip), vehicle: other
  T/C: 232 % of control
dose: 37.2 mg/kg/injection, schedule: Q01DX009 (ip), vehicle: other
  T/C: 222 % of control
dose: 37.2 mg/kg/injection, schedule: Q01DX009 (oral), vehicle: other
  T/C: 124 % of control
dose: 44.0 mg/kg/injection, schedule: Q01DX005 (ip), vehicle: other
  T/C: 192 % of control
dose: 44.89 mg/kg/injection, schedule: Q01DX005 (ip), vehicle: other
  T/C: 194 % of control
dose: 44.9 mg/kg/injection, schedule: Q01DX001 (iv), vehicle: other
  T/C: 112 % of control
dose: 50.0 mg/kg/injection, schedule: Q03HX003 (ip), vehicle: other
  T/C: 210 % of control
dose: 50.0 mg/kg/injection, schedule: Q04DX003 (ip), vehicle: other
  T/C: 185 % of control
dose: 55.6 mg/kg/injection, schedule: Q01DX009 (ip), vehicle: other
  T/C: 123 % of control
dose: 67.0 mg/kg/injection, schedule: Q01DX001 (ip), vehicle: other
  T/C: 151 % of control
dose: 74.8 mg/kg/injection, schedule: Q04DX003 (ip), vehicle: other
  T/C: 212 % of control
dose: 82.9 mg/kg/injection, schedule: Q01DX009 (oral), vehicle: other
  T/C: 109 % of control
dose: 100.0 mg/kg/injection, schedule: Q01DX001 (ip), vehicle: other
  T/C: 164 % of control
dose: 111.6 mg/kg/injection, schedule: Q04DX003 (ip), vehicle: other
  T/C: 210 % of control
dose: 125.0 mg/kg/injection, schedule: Q01DX005 (ip), vehicle: saline with Tween-80
  T/C: 156 % of control
dose: 150.0 mg/kg/injection, schedule: Q01DX001 (ip), vehicle: other
  T/C: 205 % of control
[8]
  T/C: 117 % of control

## CC(=O)N[C@@H](Cc1ccc(N(CCCl)CCCl)cc1)C(=O)ON1C(=O)CCC1=O
dose: 5.8 mg/kg/injection, schedule: Q01DX009 (ip), vehicle: saline
  T/C: 168 % of control
dose: 5.8 mg/kg/injection, schedule: Q03HX008 (ip), vehicle: saline
  T/C: 160 % of control
dose: 11.6 mg/kg/injection, schedule: Q01DX009 (ip), vehicle: saline
  T/C: 190 % of control
dose: 11.6 mg/kg/injection, schedule: Q03HX008 (ip), vehicle: saline
  T/C: 195 % of control
dose: 23.2 mg/kg/injection, schedule: Q03HX008 (ip), vehicle: saline
  T/C: 260 % of control

## Cc1cccc(C)c1NC=O
dose: 50.0 mg/kg/injection, schedule: Q04DX003 (ip), vehicle: saline
  T/C: 112 % of control
dose: 100.0 mg/kg/injection, schedule: Q04DX003 (ip), vehicle: saline
  T/C: 105 % of control
dose: 200.0 mg/kg/injection, schedule: Q04DX003 (ip), vehicle: saline
  T/C: 106 % of control
dose: 400.0 mg/kg/injection, schedule: Q04DX003 (ip), vehicle: saline
  T/C: 106 % of control

## CC1C(O)C(O)CC2COCC21 (stereo unspecified)
dose: 37.5 mg/kg/injection, schedule: Q01DX001 (ip), vehicle: saline
  T/C: 100 % of control
dose: 75.0 mg/kg/injection, schedule: Q01DX001 (ip), vehicle: saline
  T/C: 100 % of control
dose: 150.0 mg/kg/injection, schedule: Q01DX001 (ip), vehicle: saline
  T/C: 104 % of control

## C[C@]12CCNC(=O)C=C1CC[C@@H]1C2CC[C@@]2(C)C1CC[C@@H]2OC(=O)COc1ccc(N(CCCl)CCCl)cc1 (stereo partly specified)
dose: 100.0 mg/kg/injection, schedule: Q04DX002 (ip), vehicle: saline with Tween-80
  T/C: 159 % of control
dose: 200.0 mg/kg/injection, schedule: Q04DX002 (ip), vehicle: saline with Tween-80
  T/C: 199 % of control
dose: 400.0 mg/kg/injection, schedule: Q04DX002 (ip), vehicle: saline with Tween-80
  T/C: 225 % of control

## C/C(CC/C(C)=N/N=C(\N)c1ccccn1)=N\N=C(/N)c1ccccn1
[1]
  T/C: 99 % of control
[2]
  T/C: 98 % of control
[3]
  T/C: 99 % of control
